{"source": "patent US7101878B1", "about": "(Agouron Pharmaceuticals, Inc., priority 1998, dated 2006)"}
{"target": "T1, mouse GnRH receptor (Mus musculus, UniProt Q01776)", "T1 construct": "expressed in transfected cells; host or cells: 293 cells", "T1 sequence (Q01776 1-327)": "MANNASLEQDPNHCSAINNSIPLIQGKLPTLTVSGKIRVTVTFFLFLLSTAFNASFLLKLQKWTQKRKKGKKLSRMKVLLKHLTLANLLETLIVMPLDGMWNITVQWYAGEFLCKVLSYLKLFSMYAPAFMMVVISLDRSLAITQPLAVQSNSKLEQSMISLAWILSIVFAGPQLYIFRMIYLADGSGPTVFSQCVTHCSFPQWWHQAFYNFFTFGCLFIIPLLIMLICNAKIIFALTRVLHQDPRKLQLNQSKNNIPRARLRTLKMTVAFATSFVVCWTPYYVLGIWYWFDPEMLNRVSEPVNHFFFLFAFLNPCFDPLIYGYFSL", "assay": "Radioligand binding, 125I-GnRH-A, 293 cells expressing mouse GnRH receptors", "details": "10 uM; read-out: % Inhib. @ 10 uM mGnRH", "procedure,_shortened": "(§1)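 Bound label captured on 0.1% polyethyleneimine-treated GF/C filters, washed three times with PBS, counted. IC50 derived; identical set-up for every species.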", "units": {"inhibition at 10 µM": "%"}}
{"smiles": "Cc1cc2c(cc1Cc1ccc(C(=O)NCc3ccc(F)cc3)o1)C(C)(C)CCC2(C)C", "note": "[drawing 1482]", "inhibition at 10 µM": 97}
{"smiles": "CCOC(=O)CC(C)NC(=O)c1ccc(Cc2cc3c(cc2C)C(C)(C)CCC3(C)C)o1", "note": "(stereo not shown)", "inhibition at 10 µM": 88}
{"smiles": "Cc1cc2c(cc1Cc1ccc(C(=O)N3Cc4ccccc4CC3C(=O)NCC(c3ccccc3)c3ccccc3)o1)C(C)(C)CCC2(C)C", "note": "(stereo not shown)", "inhibition at 10 µM": 9}
{"smiles": "CCOC(=O)C1CN(C(=O)c2ccc(Cc3cc4c(cc3C)C(C)(C)CCC4(C)C)o2)CCC1=O", "note": "(stereo not shown)", "inhibition at 10 µM": 71}
{"smiles": "Cc1cc2c(cc1Cc1ccc(C(=O)N(Cc3cccnc3)Cc3cccc4ccccc34)o1)C(C)(C)CCC2(C)C", "inhibition at 10 µM": 79}
{"smiles": "CCCN(CCc1ccccn1)C(=O)c1ccc(Cc2cc3c(cc2C)C(C)(C)CCC3(C)C)o1", "note": "[drawing 1297]", "inhibition at 10 µM": 100}
{"smiles": "Cc1cc2c(cc1Cc1ccc(C(=O)NC3CCS(=O)(=O)C3)o1)C(C)(C)CCC2(C)C", "note": "(stereo not shown) [drawing 1508]", "inhibition at 10 µM": 90}
{"smiles": "Cc1cc2c(cc1Cc1ccc(C(=O)NC3C4CC5CC6CC(C5)C643)o1)C(C)(C)CCC2(C)C", "note": "(stereo not shown)", "inhibition at 10 µM": 37}
{"smiles": "CCN(CC)CCCN(C)C(=O)c1ccc(Cc2cc3c(cc2C)C(C)(C)CCC3(C)C)o1", "inhibition at 10 µM": 92}
{"smiles": "Cc1cc2c(cc1Cc1ccc(C(=O)N3CCN(c4cccc(C)c4C)CC3)o1)C(C)(C)CCC2(C)C", "note": "[drawing 1468]", "inhibition at 10 µM": 58}
{"smiles": "Cc1cc2c(cc1Cc1ccc(C(=O)N3CCC(O)CC3)o1)C(C)(C)CCC2(C)C", "note": "[drawing 1510]", "inhibition at 10 µM": 77}
{"smiles": "Cc1cc2c(cc1Cc1ccc(C(=O)NC(CO)CC(C)C)o1)C(C)(C)CCC2(C)C", "note": "(stereo not shown) [drawing 1320]", "inhibition at 10 µM": 98}
{"smiles": "CCN1CC(NC(=O)c2ccc(Cc3cc4c(cc3C)C(C)(C)CCC4(C)C)o2)CN1CC", "inhibition at 10 µM": 91}
{"smiles": "CCOC(CNC(=O)c1ccc(Cc2cc3c(cc2C)C(C)(C)CCC3(C)C)o1)OCC", "inhibition at 10 µM": 100}
{"smiles": "Cc1cc2c(cc1Cc1ccc(C(=O)N3CCC(Cc4ccccc4)CC3)o1)C(C)(C)CCC2(C)C", "note": "[drawing 1425]", "inhibition at 10 µM": 48}
{"smiles": "Cc1cc2c(cc1Cc1ccc(C(=O)N(Cc3cccnc3)Cc3ccc(Cl)c(Cl)c3)o1)C(C)(C)CCC2(C)C", "inhibition at 10 µM": 79}
{"smiles": "Cc1cc2c(cc1Cc1ccc(C(=O)N(Cc3cccnc3)Cc3ccccc3F)o1)C(C)(C)CCC2(C)C", "note": "[drawing 1287]", "inhibition at 10 µM": 95}
{"smiles": "CCC(C)CN(CCO)C(=O)c1ccc(Cc2cc3c(cc2C)C(C)(C)CCC3(C)C)o1", "note": "(stereo not shown)", "inhibition at 10 µM": 101}
{"smiles": "Cc1cc2c(cc1Cc1ccc(C(=O)NC3CCN(Cc4ccccc4)C3)o1)C(C)(C)CCC2(C)C", "note": "(stereo not shown) [drawing 1243]", "inhibition at 10 µM": 101}
{"smiles": "Cc1cc2c(cc1Cc1ccc(C(=O)N(CCC(c3ccccc3)c3ccccc3)Cc3ccc4c(c3)OCO4)o1)C(C)(C)CCC2(C)C", "inhibition at 10 µM": 25}
{"smiles": "Cc1cc2c(cc1Cc1ccc(C(=O)N3CCN(C4Nc5ccccc5Oc5ccc(Cl)cc54)CC3)o1)C(C)(C)CCC2(C)C", "note": "(stereo not shown)", "inhibition at 10 µM": 5}
{"smiles": "Cc1cc2c(cc1Cc1ccc(C(=O)N(Cc3ccoc3)C3CCN(Cc4ccccc4)C3)o1)C(C)(C)CCC2(C)C", "note": "(stereo not shown) [drawing 1561]", "inhibition at 10 µM": 91}
{"smiles": "C=CCN1CCN(C(=O)c2ccc(Cc3cc4c(cc3C)C(C)(C)CCC4(C)C)o2)CC1", "inhibition at 10 µM": 95}
{"smiles": "Cc1cc2c(cc1Cc1ccc(C(=O)NCCc3ccc(F)cc3)o1)C(C)(C)CCC2(C)C", "note": "[drawing 1574]", "inhibition at 10 µM": 79}
{"smiles": "Cc1cc2c(cc1Cc1ccc(C(=O)N3CCN(C(c4ccccc4)c4ccc(Cl)cc4)CC3)o1)C(C)(C)CCC2(C)C", "note": "(stereo not shown)", "inhibition at 10 µM": 4}
{"target": "T1, mouse GnRH receptor", "assay": "Radioligand binding, 125I-GnRH-A, 293 cells expressing mouse GnRH receptors", "details": "1 h, substrate remaining; 10 uM compound; closer to zero = closer to 100% inhibition; read-out: S%R 10 uM mGnRHR", "procedure,_shortened": "as §1", "units": {"remaining activity at 10 µM": "%"}}
{"smiles": "Cc1cc2c(cc1Cc1ccc(C(=O)N(CCC#N)CCC#N)o1)C(C)(C)CCC2(C)C", "note": "[Compound 672]", "remaining activity at 10 µM": 23}
{"smiles": "CCC(O)CNC(=O)c1ccc(Cc2cc3c(cc2C)C(C)(C)CCC3(C)C)o1", "note": "(stereo not shown) [Compound 679]", "remaining activity at 10 µM": 1}
{"smiles": "CSCCCNC(=O)c1ccc(Cc2cc3c(cc2C)C(C)(C)CCC3(C)C)o1", "note": "[Compound 640]", "remaining activity at 10 µM": 2}
{"smiles": "Cc1cccc(N2CCN(C(=O)c3ccc(Cc4cc5c(cc4C)C(C)(C)CCC5(C)C)o3)CC2C)c1", "note": "(stereo not shown) [Compound 635]", "remaining activity at 10 µM": 27}
{"smiles": "CCCN(CCc1ccccn1)C(=O)c1ccc(Cc2cc3c(cc2C)C(C)(C)CCC3(C)C)o1", "note": "[Compound 697]", "remaining activity at 10 µM": 1}
{"smiles": "Cc1cc2c(cc1Cc1ccc(C(=O)N(CCN3CCCCC3)Cc3ccccc3)o1)C(C)(C)CCC2(C)C", "note": "[Compound 603]", "remaining activity at 10 µM": -4}
{"smiles": "Cc1cc2c(cc1Cc1ccc(C(=O)NCCCCCCN(C)C)o1)C(C)(C)CCC2(C)C", "note": "[Compound 627]", "remaining activity at 10 µM": -6}
{"smiles": "Cc1cc2c(cc1Cc1ccc(C(=O)NCC(C)O)o1)C(C)(C)CCC2(C)C", "note": "(stereo not shown) [Compound 556]", "remaining activity at 10 µM": 10}
{"smiles": "Cc1cc2c(cc1Cc1ccc(C(=O)N3CCC(NC(=O)OC(C)(C)C)C3)o1)C(C)(C)CCC2(C)C", "note": "(stereo not shown) [Compound 652]", "remaining activity at 10 µM": 19}
{"smiles": "Cc1cc2c(cc1Cc1ccc(C(=O)N3CCN(C(=O)c4ccco4)CC3)o1)C(C)(C)CCC2(C)C", "note": "[Compound 694]", "remaining activity at 10 µM": 11}
{"smiles": "Cc1cc2c(cc1Cc1ccc(C(=O)N(Cc3cccnc3)CC3CC=CCC3)o1)C(C)(C)CCC2(C)C", "note": "(stereo not shown) [Compound 691]", "remaining activity at 10 µM": 7}
{"smiles": "Cc1cc2c(cc1Cc1ccc(C(=O)NCC3CCNCC3)o1)C(C)(C)CCC2(C)C", "note": "[Compound 483]", "remaining activity at 10 µM": 10}
{"smiles": "Cc1cc2c(cc1Cc1ccc(C(=O)NCc3ccc(S(N)(=O)=O)cc3)o1)C(C)(C)CCC2(C)C", "note": "[Compound 521]", "remaining activity at 10 µM": 51}
{"smiles": "Cc1cc2c(cc1Cc1ccc(C(=O)NCCn3c([N+](=O)[O-])cnc3C)o1)C(C)(C)CCC2(C)C", "note": "[Compound 552]", "remaining activity at 10 µM": 58}
{"smiles": "Cc1cc2c(cc1Cc1ccc(C(=O)N(Cc3cccn3C)C3CCN(Cc4ccccc4)C3)o1)C(C)(C)CCC2(C)C", "note": "(stereo not shown) [Compound 623]", "remaining activity at 10 µM": 2}
{"smiles": "Cc1cc2c(cc1Cc1ccc(C(=O)NCCc3c[nH]cn3)o1)C(C)(C)CCC2(C)C", "note": "[Compound 513]", "remaining activity at 10 µM": 9}
{"smiles": "Cc1cc2c(cc1Cc1ccc(C(=O)NCc3cccc(NC(=O)NC(Cc4ccccc4)c4ccccc4)c3)o1)C(C)(C)CCC2(C)C", "note": "(stereo not shown) [Compound 682]", "remaining activity at 10 µM": 59}
{"smiles": "Cc1cc2c(cc1Cc1ccc(C(=O)N(CCC#N)Cc3ccco3)o1)C(C)(C)CCC2(C)C", "note": "[Compound 705]", "remaining activity at 10 µM": 23}
{"smiles": "COc1cc2c(cc1OC)C(CC#N)N(C(=O)c1ccc(Cc3cc4c(cc3C)C(C)(C)CCC4(C)C)o1)CC2", "note": "(stereo not shown) [Compound 614]", "remaining activity at 10 µM": 48}
{"smiles": "Cc1cc2c(cc1Cc1ccc(C(=O)NC[C@@H]3CCCO3)o1)C(C)(C)CCC2(C)C", "note": "[Compound 582]", "remaining activity at 10 µM": -2}
{"smiles": "Cc1cc2c(cc1Cc1ccc(C(=O)N(CC(C)C)CC(C)C)o1)C(C)(C)CCC2(C)C", "note": "[Compound 584]", "remaining activity at 10 µM": 15}
{"smiles": "Cc1cc2c(cc1Cc1ccc(C(=O)N3CCCC3C(=O)NC(c3ccccc3)c3ccccc3)o1)C(C)(C)CCC2(C)C", "note": "(stereo not shown) [Compound 621]", "remaining activity at 10 µM": 43}
{"smiles": "Cc1cc2c(cc1Cc1ccc(C(=O)N3C[C@H]4CCCC[C@H]4CC3C(=O)NC(C)(C)C)o1)C(C)(C)CCC2(C)C", "note": "(stereo partly shown) [Compound 591]", "remaining activity at 10 µM": 48}
{"smiles": "COc1cc2c(cc1OC)CN(C(=O)c1ccc(Cc3cc4c(cc3C)C(C)(C)CCC4(C)C)o1)CC2", "note": "[Compound 693]", "remaining activity at 10 µM": 55}
{"smiles": "Cc1cc2c(cc1Cc1ccc(C(=O)NCCCCNc3nccc(NCC4CCCO4)n3)o1)C(C)(C)CCC2(C)C", "note": "(stereo not shown) [Compound 487]", "remaining activity at 10 µM": 3}
{"smiles": "Cc1cc2c(cc1Cc1ccc(C(=O)NCCc3ccncc3)o1)C(C)(C)CCC2(C)C", "note": "[Compound 485]", "remaining activity at 10 µM": -5}
{"target": "T1, mouse GnRH receptor", "assay": "Radioligand binding, 125I-GnRH-A, 293 cells expressing mouse GnRH receptors", "details": "read-out: % Inhib. @ 10 uM mGnRH", "procedure,_shortened": "as §1", "units": {"inhibition at 10 µM": "%"}}
{"smiles": "Cc1cc2c(cc1Cc1ccc(C(=O)N[C@H]3CN4CCC3CC4)o1)C(C)(C)CCC2(C)C", "inhibition at 10 µM": 12}
